Data as given in patent US8278265B2, “Methods, kits and compositions comprising crotamine” (Fundacao de Amparo a Pesquisa do Estado de Sao Paulo—FAPESP, priority 2005, dated 2012).

Tests used:
[1] = system: embryonic stem cells (ES) of mice; assay: Embriotoxicity assay: cytotoxic effects on embryonic stem cells; type: cell-based; details: submicromolar concentrations, between 10^−6 and 10^−7 M; five days
Method: Bearing in mind that crotamine is a toxin, cytotoxic effects were tested on embryonic stem cells (ES) of mice which are non-differentiated cells, derived from the embryonic bud of blastocytes, and have as their main characteristic their pluripotence, an ability to differentiate to different types of tissues.
Such cells were chosen bearing in mind the usefulness of crotamine application for gene therapy (by means of stem cells) and transgenesis, as a carrier of other molecules to within cells. Four different concentrations were tested for five days. […] The assay was as follows.
Embryonic bodies (EBs) were obtained by the hanging drop method, as described above, using culture medium containing crotamine at various concentrations (100 μM to 0.1 μM), changing the medium every two to three days. To analyze the crotamine location in EBs under development, crotamine was substituted with crotamine linked to Cy3 (Cy3-crotamine) during the final 24 hours of incubation. Compact murine morulae (8-16 cells) were obtained from the oviduct and cultivated for 24 hours at 37° C. in 5% CO2, in individual microwells of V-bottom plates (Costar) with […] microwells in M16 medium (supplier: Sigma) and Cy3-crotamine (1-0.1 μM). After 24 hours of culture, normally developed blastocyst numbers were compared within the control and the experimental group.

B16F10 cells = assay: Tumor treatment with natural crotamine; type: in vivo, Balb/c mouse
Method: The cells were maintained in Dulbecco's modified Eagle's cell culture medium (DMEM; Invitrogen, Carlsbad, Calif.) supplemented with 15% fetal calf serum (FCS; Invitrogen). The cells were kept at 37° C. with humidity and 5% CO2. After preparing a cell suspension with about 5×10^6 cells/ml of PBS [phosphate buffered solution], approximately 0.2 ml of this suspension was subcutaneously or endovenously (retroorbital injection) injected into each Balb/c mouse, of 4 to 6 weeks-old with body weight between 16 to 20 g. For negative control, the animals were injected with 0.2 ml of PBS. Before setting up the experiments, the animals were kept under 12 hour light-dark cycle, and were allowed to have water and food ad libitum. All animals were caged and handled under ethical conditions according to international rules of animal care, stated by the International Animal Welfare Recommendations, and in accordance with the Guidelines for the Use of Animals in Biochemical Research
30 minutes after endogenous injection of B16F10 cells, as described above, the animals were treated with 1 μg of crotamine/animal by daily subcutaneous injection, during 21 days.

[2] = system: actively proliferating cells; assay: Marker for actively proliferating cells (BrDU co-labeling); type: cell-based, mice; details: FIG. 8E-H
From the text: The hanging drop method was used, with some amendments, to induce the differentiation of ES cells from USP-1 line (Wobus, A. M., Wallukat, G., Hescheler, J. (1991), Pluripotent Mouse Embryonic Cells are Able to Differentiate into Cardiomyocytes Expressing Chronotropic Responses to Adrenergic and Cholinergic Agents and Ca^2+ Channel Blockers, Differentiation 48, 173-182). Briefly, ES cell suspensions without fibroblasts were obtained, collected with 0.25% trypsin/EDTA (Gibco, U.S.A.). Said suspension was diluted up to 3.5×10^4 cells/ml and dropped by using a micropipette (25 μl per drop) on the Petri dish cap (10 cm). Drops adhered to the surface were turned upside down over the plate already containing 5 ml PBS. After three days in a CO2 oven, in the hanging drop culture in appropriate culture medium for ES, with no LIF, aggregates are formed, known as embryonic bodies (EBs). EBs were later transferred to another plate (35 mm) with a 1% agarose layer, and maintained in the CO2 oven at 37° C. On the fifth day, EBs were transferred to microscope slides, on another Petri dish, where they adhered and started differentiating into a monolayer.
Embryonic bodies, obtained according to the protocol as described above, after three days, adhered to small glass slides. […] Microscope slides were assembled in a PBS/glycerol solution (1:1) and analysed in a confocal microscope. […]

human fibroblasts = assay: In vitro incorporation of Cy3-crotamine in human fibroblasts; type: cell-based; details: after one hour of incubation, FIG. 2A
Method: Embrionary stem cells (ES) from mice, line USP-1 (Soukoyan, M. A., Kerkis, A. Y., Mello, M. R. B., Kerkis, I. E., Visintin, J. A., Pereira, L. V. (2002), Establishment of New Murine Embryonic Stem Cell Lines for the Generation of Mouse Models of Human Genetic Diseases, Braz. J. Med. Biol. Res. 35, 535-542) in the passage 8-10 were cultured on a layer of γ-irradiated embrionary fibroblasts of mice, kept in DMEM (Gibco, U.S.A.), supplemented with 15% FCS (Gibco, U.S.A.), 1 mM sodium piruvate, 1% non-essential amino acids, 0.1 mM β-mercaptoethanol and 1×103 U/ml murine Leukemia Inhibitor Factor (LIF) (ESGRO-LIF, Gibco). Human lymphoblastoids and primary fibroblasts were cultivated in DMEM and in RPMI, respectively, supplemented with 10% FCS with no antibiotics. Cultures were kept under humid atmosphere at 37° C. and 5% CO2.
In vitro assay: Semiconffluent cultures of pluripotent and differentiation ES cells (homogeneous cell population), as well as other cell cultures of normal and tumor origin, were kept in small laminar slides placed in 24-well plates containing appropriate culture medium. Cells were incubated for 2-3 minutes to 72 hours in the presence of Cy3-crotamine, under concentrations between 10 μM and 0.01 μM, or as control, just in the presence of the dye agent Cy3 diluted in 1 ml PBS (control). […]

YKQCHKKGGHCFPKEKICLPPSSDFGKMDCRWRWK CCKKGSG (YKQCHKKGGHCFPKEKICLPPSSDFGKMDCRWRWKCCKKGSG; UniProt Q9PWF3 23-64, looked up) [crotamine]
cytotoxic effect on embryonic stem cells in culture [1]: does not present any cytotoxic effect
tumor positive animals, 18th day (B16F10 cells; 1 μg/animal daily s.c., day 18): 3
tumor positive animals, 20th day (B16F10 cells; 1 μg/animal daily s.c., day 20): 2
Total positive animals up to 21th day (B16F10 cells; 1 μg/animal daily s.c., days 10-21): 5 posit.
effect on tumor formation compared to the control group (B16F10 cells; 1 μg/animal daily subcutaneous injection, 21 days): delay or even inhibited the tumor formation
tumor positive animals, 25th day (B16F10 cells; observation after end of treatment, day 25): 9
tumor positive animals, 29th day (B16F10 cells; observation after end of treatment, day 29): 9
tumor positive animals, 35th day (B16F10 cells; observation after end of treatment, day 35): 12
tumor positive animals, 48th day (B16F10 cells; observation after end of treatment, day 48): 12
ratio of positives (B16F10 cells; up to day 21): 0.33
co-location with BrDU staining in actively proliferating ES cells [2]: co-location
labeling of human fibroblasts (human fibroblasts): intensively marked
